Source: PubChem BioAssay AID1919010 (Molecular Pharmacology Branch, DTP, NCI, 2023)

Test system: Hs578T complex spheroid growth, percent test/control
Test: Anticancer human tumor Hs578T cell line growth inhibition [AhR];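 also: luminescent viability signal as a proxy for spheroid growth; spheroids exposed to agents for one week after three days of growth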
Conditions: for IC50: curve of first compound; for viability, T/C: stronger effect = lower value
How it was run: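 Agents were dosed in half-log steps down from roughly clinical Cmax, or from 10 microM where Cmax was unknown, alone and with AhR antagonists. Read-out: percent test/control growth of tumor spheroids containing HUVEC and MSC stromal cells.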

[1] = second compound 0.1 µM, first compound 0.0316 µM
[2] = second compound 0.1 µM, first compound 0.1 µM
[3] = second compound 0.1 µM, first compound 0.316 µM
[4] = second compound 0.1 µM, first compound 1 µM
[5] = second compound 0.1 µM, first compound 3.16 µM
[6] = second compound 0.1 µM, first compound 10 µM
[7] = second compound 0.316 µM, first compound 0.0316 µM
[8] = second compound 0.316 µM, first compound 0.1 µM
[9] = second compound 0.316 µM, first compound 0.316 µM
[10] = second compound 0.316 µM, first compound 1 µM
[11] = second compound 0.316 µM, first compound 3.16 µM
[12] = second compound 0.316 µM, first compound 10 µM
[13] = second compound 1 µM, first compound 0.0316 µM
[14] = second compound 1 µM, first compound 0.1 µM
[15] = second compound 1 µM, first compound 0.316 µM
[16] = second compound 1 µM, first compound 1 µM
[17] = second compound 1 µM, first compound 3.16 µM
[18] = second compound 1 µM, first compound 10 µM
[19] = second compound 3.16 µM, first compound 0.0316 µM
[20] = second compound 3.16 µM, first compound 0.1 µM
[21] = second compound 3.16 µM, first compound 0.316 µM
[22] = second compound 3.16 µM, first compound 1 µM
[23] = second compound 3.16 µM, first compound 3.16 µM
[24] = second compound 3.16 µM, first compound 10 µM
[25] = second compound 10 µM, first compound 0.0316 µM
[26] = second compound 10 µM, first compound 0.1 µM
[27] = second compound 10 µM, first compound 0.316 µM
[28] = second compound 10 µM, first compound 1 µM
[29] = second compound 10 µM, first compound 3.16 µM
[30] = second compound 10 µM, first compound 10 µM

Row | Structure (SMILES) | IC50 (second compound 0.1 µM) | IC50 (second compound 0.316 µM) | IC50 (second compound 1 µM) | IC50 (second compound 3.16 µM) | IC50 (second compound 10 µM) | viability, T/C [1] | viability, T/C [2] | viability, T/C [3] | viability, T/C [4] | viability, T/C [5] | viability, T/C [6] | viability, T/C [7] | viability, T/C [8] | viability, T/C [9] | viability, T/C [13] | viability, T/C [14] | viability, T/C [19] | viability, T/C [20] | viability, T/C [25] | viability, T/C [26] | also measured
1 | COc1cc(Nc2ncc3c(n2)-c2ccc(Cl)cc2C(c2c(F)cccc2OC)=NC3)ccc1C(=O)O + Cc1cncc(-c2nc(NCCc3c[nH]c4ccccc34)c3ncn(C(C)C)c3n2)c1 | > 10 µM | > 10 µM | > 10 µM | > 10 µM | < 0.0316 µM | 91.4% | 94.7% | 99.6% | 101% | 85.6% | 65.1% | 93.5% | 93.2% | 107% | 98.5% | 81.7% | 55.6% | 62.4% | 6.12% | 5.86% | viability, T/C [10]: 90.5%; viability, T/C [11]: 88.2%; viability, T/C [12]: 66.9%; viability, T/C [15]: 104%; viability, T/C [16]: 99.2%; viability, T/C [17]: 86.7%; viability, T/C [18]: 62.5%; viability, T/C [21]: 70.1%; viability, T/C [22]: 59.4%; viability, T/C [23]: 61.1%; viability, T/C [24]: 53.3%; viability, T/C [27]: 6.53%; viability, T/C [28]: 6.24%; viability, T/C [29]: 8.49%; viability, T/C [30]: 12.8%
2 | Cn1ncnc1C1c2n[nH]c(=O)c3cc(F)cc(c23)NC1c1ccc(F)cc1 (stereo not given) + Cc1cncc(-c2nc(NCCc3c[nH]c4ccccc34)c3ncn(C(C)C)c3n2)c1 | > 0.1 µM | > 0.1 µM | > 0.1 µM | > 0.1 µM | < 0.000316 µM | 111% | 108% | – | – | – | – | 97.4% | 108% | – | 97% | 97.6% | 70.5% | 64.1% | 9.58% | 9.69% | viability, T/C (second compound 0.1 µM, first compound 0.000316 µM): 103%; viability, T/C (second compound 0.1 µM, first compound 0.001 µM): 104%; viability, T/C (second compound 0.1 µM, first compound 0.00316 µM): 112%; viability, T/C (second compound 0.1 µM, first compound 0.01 µM): 99%; viability, T/C (second compound 0.316 µM, first compound 0.000316 µM): 107%; viability, T/C (second compound 0.316 µM, first compound 0.001 µM): 115%; viability, T/C (second compound 0.316 µM, first compound 0.00316 µM): 116%; viability, T/C (second compound 0.316 µM, first compound 0.01 µM): 106%; viability, T/C (second compound 1 µM, first compound 0.000316 µM): 101%; viability, T/C (second compound 1 µM, first compound 0.001 µM): 105%; viability, T/C (second compound 1 µM, first compound 0.00316 µM): 98%; viability, T/C (second compound 1 µM, first compound 0.01 µM): 98.5%; viability, T/C (second compound 3.16 µM, first compound 0.000316 µM): 67.8%; viability, T/C (second compound 3.16 µM, first compound 0.001 µM): 73.3%; viability, T/C (second compound 3.16 µM, first compound 0.00316 µM): 72.4%; viability, T/C (second compound 3.16 µM, first compound 0.01 µM): 69%; viability, T/C (second compound 10 µM, first compound 0.000316 µM): 8.48%; viability, T/C (second compound 10 µM, first compound 0.001 µM): 9.41%; viability, T/C (second compound 10 µM, first compound 0.00316 µM): 9.77%; viability, T/C (second compound 10 µM, first compound 0.01 µM): 7.44%
3 | NS(=O)(=O)OCC1CC(n2ccc3c(NC4CCc5ccccc54)ncnc32)CC1O (stereo not given) + Cc1cncc(-c2nc(NCCc3c[nH]c4ccccc34)c3ncn(C(C)C)c3n2)c1 | 2.9 µM | 2.84 µM | 2.14 µM | 0.774 µM | < 0.0316 µM | 114% | 94.9% | 83.3% | 60.2% | 51% | 35.1% | 128% | 100% | 84.2% | 115% | 98.9% | 69.2% | 66% | 6.36% | 6.52% | viability, T/C [10]: 60.6%; viability, T/C [11]: 48.2%; viability, T/C [12]: 39.6%; viability, T/C [15]: 99.4%; viability, T/C [16]: 59.4%; viability, T/C [17]: 48.3%; viability, T/C [18]: 36.6%; viability, T/C [21]: 66.1%; viability, T/C [22]: 45.4%; viability, T/C [23]: 35.4%; viability, T/C [24]: 38.3%; viability, T/C [27]: 7.75%; viability, T/C [28]: 5.11%; viability, T/C [29]: 5.06%; viability, T/C [30]: 3.64%
4 | O=C(C=Cc1cccc(S(=O)(=O)Nc2ccccc2)c1)NO + Cc1cncc(-c2nc(NCCc3c[nH]c4ccccc34)c3ncn(C(C)C)c3n2)c1 | 2.28 µM | 2.57 µM | 2.33 µM | 0.75 µM | < 0.0316 µM | 122% | 110% | 106% | 75.6% | 39.8% | 2.43% | 103% | 116% | 93.8% | 113% | 101% | 76.3% | 63.8% | 7.33% | 7.26% | viability, T/C [10]: 79.6%; viability, T/C [11]: 44%; viability, T/C [12]: 2.11%; viability, T/C [15]: 98.9%; viability, T/C [16]: 77.2%; viability, T/C [17]: 39.9%; viability, T/C [18]: 1.72%; viability, T/C [21]: 63.1%; viability, T/C [22]: 46.8%; viability, T/C [23]: 26.2%; viability, T/C [24]: 0.97%; viability, T/C [27]: 4.94%; viability, T/C [28]: 2.69%; viability, T/C [29]: 1.35%; viability, T/C [30]: 0.35%
